From the supplement of paper PMC10307832

What was measured:
Test in all cases: relative viability (nuclei count vs DMSO), 5 days (fraction); higher = more cells survive
Venetoclax + Navitoclax = compound: CC1(C)CCC(CN2CCN(c3ccc(C(=O)NS(=O)(=O)c4ccc(NCC5CCOCC5)c([N+](=O)[O-])c4)c(Oc4cnc5[nH]ccc5c4)c3)CC2)=C(c2ccc(Cl)cc2)C1 [Venetoclax] + CC1(C)CCC(c2ccc(Cl)cc2)=C(CN2CCN(c3ccc(C(=O)NS(=O)(=O)c4ccc(N[C@H](CCN5CCOCC5)CSc5ccccc5)c(S(=O)(=O)C(F)(F)F)c4)cc3)CC2)C1 [Navitoclax] (partner 0.5 µM)
In short: (§1)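 One day after seeding in 1536-well plates, lung cancer cell lines were dosed by pin tool. Dosing was either single-drug or a fixed anchor-drug dose plus five library-drug doses (not always all listed) in √10 steps. After 5 days, nuclei were stained in one fix-and-stain step and counted on 4× images, and relative viability is the nuclei count of treated wells over that of vehicle wells, given as the median of duplicate plates.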

Venetoclax + Foretinib = compound: CC1(C)CCC(CN2CCN(c3ccc(C(=O)NS(=O)(=O)c4ccc(NCC5CCOCC5)c([N+](=O)[O-])c4)c(Oc4cnc5[nH]ccc5c4)c3)CC2)=C(c2ccc(Cl)cc2)C1 [Venetoclax] + COc1cc2c(Oc3ccc(NC(=O)C4(C(=O)Nc5ccc(F)cc5)CC4)cc3F)ccnc2cc1OCCCN1CCOCC1 [Foretinib] (partner 0.25 µM)
In short: as §1

Selumetinib = compound: Cn1cnc2c(F)c(Nc3ccc(Br)cc3Cl)c(C(=O)NOCCO)cc21 [Selumetinib]
In short: (§2)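 Hoechst staining, done together with fixation and permeabilisation, marked nuclei for 4× imaging and MetaXpress counting. This followed 5 days without medium change after lung cancer cell lines, kept overnight at 37 °C in 1536-well plates, were pinned with five library-drug doses (not always all listed) spaced by √10 on vehicle-anchored plates. Viability is the ratio of treated-well to vehicle-well nuclei, expressed as a median across plates. Plates passed only at control CV below 25% with at least one doubling.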

Venetoclax = compound: CC1(C)CCC(CN2CCN(c3ccc(C(=O)NS(=O)(=O)c4ccc(NCC5CCOCC5)c([N+](=O)[O-])c4)c(Oc4cnc5[nH]ccc5c4)c3)CC2)=C(c2ccc(Cl)cc2)C1 [Venetoclax]
In short: as §2

Cell Line | relative viability (Venetoclax + Navitoclax; first compound 0.01 µM) | relative viability (Venetoclax + Navitoclax; first compound 0.03162 µM) | relative viability (Venetoclax + Navitoclax; first compound 0.1 µM) | relative viability (Venetoclax + Navitoclax; first compound 0.3162 µM) | relative viability (Venetoclax + Navitoclax; first compound 1 µM) | relative viability (Venetoclax + Foretinib; first compound 0.01 µM) | relative viability (Venetoclax + Foretinib; first compound 0.03162 µM) | relative viability (Venetoclax + Foretinib; first compound 0.1 µM) | relative viability (Venetoclax + Foretinib; first compound 0.3162 µM) | relative viability (Venetoclax + Foretinib; first compound 1 µM) | relative viability (Selumetinib; 0.02 µM) | relative viability (Selumetinib; 0.06325 µM) | relative viability (Selumetinib; 0.2 µM) | relative viability (Selumetinib; 0.6325 µM) | relative viability (Venetoclax; 0.01 µM) | relative viability (Venetoclax; 0.03162 µM) | relative viability (Venetoclax; 0.1 µM) | relative viability (Venetoclax; 0.3162 µM) | relative viability (Venetoclax; 1 µM)
H3255 | 0.54 | 0.573 | 0.433 | 0.618 | 0.498 | 0.835 | 1 | 0.865 | 0.893 | 0.788 | 0.983 | 0.914 | 0.944 | 0.93 | 1 | 1.04 | 0.98 | 1.01 | 0.933
EBC-1 | 0.389 | 0.455 | 0.479 | 0.443 | 0.47 | 0.115 | 0.0897 | 0.09 | 0.0924 | 0.0981 | 0.959 | 0.828 | 0.759 | 0.523 | 0.961 | 1.05 | 0.961 | 0.926 | 0.894
NCI-H1993 | 0.971 | 0.904 | 0.944 | 0.962 | 0.891 | 0.786 | 0.859 | 0.863 | 0.783 | 0.686 | 0.794 | 0.727 | 0.728 | 0.762 | 0.892 | 0.999 | 0.904 | 0.91 | 0.838
NCI-H460 | 0.996 | 1.16 | 1.1 | 1.07 | 1.09 | 0.978 | 0.941 | 0.791 | 0.997 | 0.951 | 0.963 | 0.801 | 0.823 | 0.545 | 0.98 | 0.965 | 0.941 | 0.989 | 0.923
NCI-H1437 | 1.07 | 1.09 | 1.04 | 1.04 | 0.977 | 1.28 | 1.24 | 1.25 | 1.26 | 1.15 | 0.911 | 0.817 | 0.703 | 0.53 | 0.971 | 1.04 | 0.989 | 0.957 | 0.949
NCI-H2347 | 0.793 | 0.876 | 0.807 | 0.855 | 0.819 | 1.05 | 1.39 | 0.85 | 0.883 | 0.854 | 0.917 | 0.667 | 0.492 | 0.386 | 1.06 | 1.12 | 0.965 | 0.978 | 0.977
LC-2-ad | 0.441 | 0.4 | 0.531 | 0.52 | 0.466 | 1.04 | 0.95 | 0.938 | 0.947 | 0.904 | 0.948 | 0.896 | 0.885 | 0.899 | 0.942 | 1.01 | 0.978 | 1 | 0.964
SK-MES-1 | 1.25 | 1.16 | 1.2 | 1.25 | 1.09 | 0.895 | 0.988 | 0.951 | 0.991 | 0.899 | 0.921 | 0.885 | 0.698 | 0.527 | 0.961 | 1.05 | 0.993 | 1 | 0.902
NCI-H2170 | 0.746 | 0.688 | 0.521 | 0.509 | 0.531 | 0.971 | 1.01 | 0.939 | 0.995 | 1 | 0.982 | 0.97 | 0.896 | 0.937 | 0.863 | 0.944 | 0.904 | 0.91 | 0.877
NCI-H2126 | 0.886 | 0.853 | 0.851 | 0.808 | 0.855 | 1.17 | 1.21 | 0.784 | 1.09 | 1.06 | 0.932 | 0.883 | 0.857 | 0.77 | 1 | 1.07 | 0.992 | 0.996 | 0.953
EPLC-272H | – | 1.23 | 1.12 | 1.14 | 1.05 | 0.678 | 0.849 | 0.597 | 0.725 | 0.74 | 0.875 | 0.774 | 0.614 | 0.648 | 0.874 | 1.09 | 0.934 | 1.03 | 0.888
PC-14 | 0.986 | 1.03 | 0.936 | 0.954 | 0.926 | 0.945 | 0.968 | 0.939 | 0.966 | 0.822 | 0.931 | 0.932 | 0.935 | 0.844 | 1 | 1.08 | 1.03 | 0.989 | 0.818
NCI-H520 | 1.14 | 1.27 | 1.06 | 1.2 | 0.962 | 0.628 | 0.708 | 0.711 | 0.949 | 0.727 | 1.12 | 0.981 | 1.08 | 1.04 | 0.923 | 0.994 | 0.828 | 0.971 | 1
LXF-289 | 0.926 | 0.988 | 0.952 | 0.868 | 0.829 | 1.05 | 0.975 | 0.991 | 0.941 | 0.913 | 0.948 | 0.932 | 0.835 | 0.778 | 1.17 | 1.02 | 0.944 | 0.956 | 0.883
NCI-H441 | 0.659 | 1.09 | 0.627 | 0.482 | 0.47 | 0.903 | 0.962 | 0.966 | 0.97 | 0.686 | 1.18 | 0.922 | 0.827 | 0.649 | 0.952 | 1.08 | 0.97 | 0.974 | 0.865
